# Laboratory results taken from patent EP0005541A2, “Substituted piperidine, morpholine or piperidone derivatives, fungicides containing these compounds, process for their preparation and their use, and the use of these compounds as fungicides” (F. HOFFMANN-LA ROCHE & CO. Aktiengesellschaft, priority 1978, dated 1979).
# Experiments:
# Format in all cases: in vivo
# Erysiphe graminis = Erysiphe graminis protective spray test on barley seedlings (greenhouse); conditions: barley seedlings HERTA, infected 2 days after spraying, read 7 days after infection vs infected untreated control
# Method: 30-40 Gerstenkeimlinge der Sorte HERTA (verteilt auf 2 Töpfe mit 7 cm Durchmesser) wurden jeweils im Einblattstadium mit einer wässerigen Dispersion der Testsubstanz (wie allgemein üblich aufbereitet als Spritzpulver) allseitig gründlich besprüht und anschliessend bei 22-26°C, 80% rel. Luftfeuchtigkeit und einer Photoperiode von 16 Stunden im Gewächshaus weiterkultiviert. Die Infektion erfolgte 2 Tage nach der Behandlung durch Bestäuben der Versuchspflanzen mit Kon dien von Erysiphe graminis. 7 Tage nach der Infektion wurde ::ie durch Erysiphe graminis befallene Blattfläche in % gegenüber derjenigen der infizierten, nicht behandelten Kontrolle ermittelt. Die Resultate sind in Tabelle I zusammengefasst.
# Venturia inaequalis = Venturia inaequalis protective spray test on apple seedlings; conditions: infected 2 days after spraying, read on day 13 after infection vs infected untreated control
# Method: 3 Apfelpflänzchen (verteilt auf 3 Töpfe mit 5 cm Durchmesser) aus Samen der Sorte GOLDIN DELICIOUS wurden im 4- bis 5-Blattstadium mit einer wässerigen Dispersion der Testsubstanz (wie allgemein üblich aufbereitet als Spritzpulver) allseitig gründlich besprüht. Die behandelten Pflanzen wurden anschliessend während 2 Tagen bei 17°C, 70-80%rel. Luftfeuchtigkeit und einer Photoperiode von 14 Stunden weiterkultiviert. Danach erfolgte die Infektion der Apfelsämlinge durch Besprühen mit in dest. Wasser suspendierten Konidien (200'000 Konidien/ml) von Venturia inaequalis. Nach der Infektion wurden die Pflanzen im Dunkeln während 48 Stunden bei 16-18°C und einer rel. Luftfeuchtigkeit von über 90% inkubiert und anschliessend in ein schattiertes Gewächshaus mit einer Temperatur von 22-26 °C und einer rel. Luftfeuchtigkeit von über 80% überführt. Am 13. Tage nach der Infektion erfolgte die Ermittlung der durch Venturia inaequalis befallenen Blattfläche gegenüber der infizierten, nicht behandelten Kontrolle. Die Resultate sind in Tabelle II zusammengefasst.
# Puccinia coronata = Puccinia coronata protective spray test on oat seedlings; conditions: oat seedlings FLAEMINGSKRONE, infected 2 days after spraying, read on day 9 after infection vs infected untreated control
# Method: 30-40 Haferkeimlinge der Sorte FLAEMINGSKRONE (verteilt auf 2 Töpfe mit 7 cm Durchmesser) wurden jeweils im Einblattstadium mit einer wässerigen Dispersion der Testsubstanz (wie allgemein üblich aufbereitet als Spritzpulver) allseitig gründlich besprüht und anschliessend in einer Klimakabine bei 17°C. 70-80% rel. Luftfeuchtigkeit und einer Photoperiode von 16 Stunden weiterkultiviert. Nach 2 Tagen erfolgte die Infektion der Versuchspflanzen durch Besprühen mit in dest. Wasser suspendierten Uredosporen (300'000 Sporen/ml) vor. Puccinia coronata. Danach wurden die Pflanzen während 24 Stunden bei 20°C und einer Luftfeuchtigkeit von über 90W im Dunkeln inkubiert und anschliessend in ein Gewächshaus mit einer Temperatur von 22-26 °C, einer rel. Luftfeuchtigkeit von 70% und einer Photoperiode von 18 Stunden übe führt. Am 9. Tage nach der Infektion wurde die durch Pucrinia coronata befallene Blattfläche in % gegenüber der infizierten, nicht behandelten Kontrolle ermittelt. Die ResLltate sind in Tabelle I zusammengefasst.
Compound,Wirkung (in %) Erysiphe graminis (Erysiphe graminis; 5 mg/l Spritzbrühe),Wirkung (in %) Erysiphe graminis (Erysiphe graminis; 16 mg/l Spritzbrühe),Wirkung (in %) Erysiphe graminis (Erysiphe graminis; 50 mg/l Spritzbrühe),Wirkung (in %) Erysiphe graminis (Erysiphe graminis; 160 mg/l Spritzbrühe),Wirkung (in %) Erysiphe graminis (Erysiphe graminis; 500 mg/l Spritzbrühe),Wirkung (in %) Venturia inaequalis (Venturia inaequalis; 5 mg/l Spritzbrühe),Wirkung (in %) Venturia inaequalis (Venturia inaequalis; 16 mg/l Spritzbrühe),Wirkung (in %) Venturia inaequalis (Venturia inaequalis; 50 mg/l Spritzbrühe),Wirkung (in %) Venturia inaequalis (Venturia inaequalis; 160 mg/l Spritzbrühe),Wirkung (in %) Venturia inaequalis (Venturia inaequalis; 500 mg/l Spritzbrühe),Wirkung (in %) Puccinia coronata (Puccinia coronata; 5 mg/l Spritzbrühe),Wirkung (in %) Puccinia coronata (Puccinia coronata; 16 mg/l Spritzbrühe),Wirkung (in %) Puccinia coronata (Puccinia coronata; 50 mg/l Spritzbrühe),Wirkung (in %) Puccinia coronata (Puccinia coronata; 160 mg/l Spritzbrühe),Wirkung (in %) Puccinia coronata (Puccinia coronata; 500 mg/l Spritzbrühe)
"CC(Cc1ccc(C(C)(C)CCl)cc1)CN1CC(C)CC(C)C1 (stereo not shown) [1-/3-[p-(2-Chlor-1,1-dimethyl-äthyl)-phenyl]-2-methyl-propyl/-3,5-dimethyl-piperidin]",85%,92%,100%,100%,100%,20%,33%,77%,87%,99%,40%,98%,100%,100%,100%
"CC(Cc1ccc(C(C)(C)CCl)cc1)CN1CCCCC1 (stereo not shown) [1-/3-[p-(2-Chlor-1,1-dimethyl-äthyl)-phenyl]-2-methyl-propyl/-piperidin]",45%,70%,80%,97%,100%,0%,20%,30%,90%,95%,30%,65%,85%,100%,100%
"CCC(C)(C)c1ccc(C(C)=C(C)CN2CCC3(CC2)OCCO3)cc1 [1-[3-(p-tert.-Amyl-phenyl)-2,3-dimethyl-2-propenyl]-4,4-äthylendioxy-piperidin]",75%,90%,90%,98%,–,0%,0%,10%,10%,95%,20%,98%,100%,100%,100%
"CCC(C)(C)c1ccc(CC(C)CN2CCC3(CC2)OCCO3)cc1 (stereo not shown) [1-[3-(p-tert.-Amyl-phenyl)-2-methyl-propyl]-4,4-äthylendioxy-piperidin]",75%,85%,90%,100%,100%,0%,40%,63%,97%,98%,10%,30%,90%,100%,100%
"CC(CN1CCC2(CC1)OCCO2)=C(C)c1ccc(C(C)(C)C)cc1 [1-[3-(p-tert.-Butyl-phenyl)-2,3-dimethyl-2-propenyl]-4,4-äthylendioxy-piperidin]",80%,98%,98%,100%,100%,0%,0%,20%,37%,83%,98%,100%,100%,100%,100%
"CC(CN1CCC(=O)CC1)=C(C)c1ccc(C(C)(C)C)cc1 [1-[3-(p-tert.-Butyl-phenyl)-2,3-dimethyl-2-propenyl]-4-piperidon]",0%,60%,100%,100%,100%,0%,10%,20%,37%,83%,0%,25%,100%,100%,100%
"CC(Cc1ccc(C(C)(C)C)cc1)CN1CCC2(CC1)OCCO2 (stereo not shown) [1-[3-(p-tert.-Butyl-phenyl)-2-methyl-propyl]-4,4-äthylendioxy-piperidin]",30%,50%,70%,85%,–,–,–,–,–,20%,90%,95%,100%,100%,100%
CC(Cc1ccc(C(C)(C)C)cc1)CN1CCC(=O)CC1 (stereo not shown) [1-[3-(p-tert.-Butyl-phenyl)-2-methyl-propyl]-4-piperidon],75%,80%,93%,100%,–,0%,0%,0%,10%,90%,0%,0%,0%,0%,98%
"CC(Cc1ccc(C(C)(C)CCl)cc1)CN1CC(C)OC(C)C1 (stereo not shown) [4-/3-[p-(2-Chlor-1,1-dimethyl-äthyl)-phenyl]-2-methyl-propyl/-2,6-dimethyl-morpholin]",60%,75%,90%,100%,100%,13%,67%,93%,95%,95%,0%,0%,20%,100%,–
CC(CN1CCCCC1)C(O)c1ccc(C(C)(C)C)cc1 (stereo not drawn) [α-(p-tert.-Butyl-phenyl)-β-methyl-1-piperidin-propanol],75%,80%,87%,98%,98%,10%,20%,43%,93%,100%,10%,30%,80%,100%,100%
